Test results from the NIST ThermoML archive (doi:10.1016/j.tca.2011.10.013).

Experiment: mn = molality of the nth substance listed, in mol/kg
Details: 101 kPa, Liquid; for speed of sound: Sing-around technique in a fixed-path interferometer; for mass density: Vibrating tube method

O=C[C@H](O)[C@@H](O)[C@H](O)[C@H](O)CO [D-glucose] + O
m1 = 1.13
Details	mass density [kg/m3]	speed of sound [m/s]
298.15 K	1065.07	1564.8
303.15 K	1063.3	1574.3
308.15 K	1061.36	1582.4
313.15 K	1059.24	1589.1
318.15 K	1056.98	1594.4
323.15 K	1054.25	1598.5

OC[C@H]1O[C@@](CO)(O[C@H]2O[C@H](CO)[C@@H](O)[C@H](O)[C@H]2O)[C@@H](O)[C@@H]1O [D-sucrose] + O
m1 = 1.274
Details	mass density [kg/m3]	speed of sound [m/s]
298.15 K	1127.37	1607.9
303.15 K	1125.37	1615.6
308.15 K	1123.2	1621.9
313.15 K	1120.73	1627
318.15 K	1118.18	1630.8
323.15 K	1115.44	1633.3
